# Assay results taken from patent publication US20260347338A1, “PYRIMIDINE/PYRIDINE DERIVATIVES OR SALTS THEREOF AND PHARMACEUTICAL COMPOSITIONS COMPRISING THE SAME” (YUHAN CORPORATION, priority 2023, published 2026).
# Where a name gives a salt, the structure may show the parent alone.
# Molecular target: T1, human recombinant HPK1 (Homo sapiens, UniProt Q92918)
# T1 construct: purchased BPS Bioscience
# Test: Inhibitory activity against human recombinant HPK1 (TR-FRET)
# Type: biochemical
# Settings: ULight-p70S6K peptide, ATP at Km, room temperature, 1 hour, 0.32 to 1000 nM compound
# Procedure: Test Example: Evaluation of Inhibitory Activity Against Human Recombinant HPK1
# The inhibitory activity against human recombinant HPK1 was evaluated using the Time-Resolved Fluorescence Resonance Energy Transfer (TR-FRET) technology of Perkin-Elmer. The test compound was prepared as a 20 mM stock solution with dimethyl sulfoxide (DMSO), serially diluted in a buffer solution, and used at final compound concentrations of 0.32 to 1000 nM. The evaluation of inhibitory activity was carried out at room temperature, using recombinant human HPK1 (BPS Bioscience). Briefly, recombinant human HPK1, serially diluted each test compound, ULight-p70S6K peptide substrate (PerkinElmer), and ATP at each concentration (Km and final concentration) were added to a kinase buffer solution (50 mM HEPES pH 7.4, 10 mM MgCl2, 1 mM EGTA, 3 mM MnCl2, 2 mM DTT, and 0.01% Tween-20). The resulting mixture was added to each well of a 384-well plate (Optiplate™ 384, white, PerkinElmer). The enzyme reaction was carried out at room temperature for 1 hour. After the reaction was suspended by adding 4 μL of a stop solution (10 mM EDTA) thereto, the mixture was stirred for 1 minute and then a detection solution containing Europium-labeled anti-phosphopeptide antibody (final concentration: 2 nM, PerkinElmer) was added thereto. The signals of TR-FRET at excitation wavelength (320 nm) and emission wavelength (665 nm) were detected using a microplate reader (Envision Multilabel Reader, Perkin-Elmer). Inhibition by the test compound was measured as % inhibition in the signals, compared to the control group treated with DMSO only. The IC50 value of each compound was calculated using the GraphPad Prism program (GraphPad Software, Inc., San Diego, CA, USA). The IC50 values of test compounds for inhibitory activity against HPK1 were classified as follows: • A: IC50≤10 nM • B: 10 nM<IC50≤50 nM • C: 50 nM<IC50≤100 nM • D: IC50>100 nM
# T1 sequence (Q92918 whole entry): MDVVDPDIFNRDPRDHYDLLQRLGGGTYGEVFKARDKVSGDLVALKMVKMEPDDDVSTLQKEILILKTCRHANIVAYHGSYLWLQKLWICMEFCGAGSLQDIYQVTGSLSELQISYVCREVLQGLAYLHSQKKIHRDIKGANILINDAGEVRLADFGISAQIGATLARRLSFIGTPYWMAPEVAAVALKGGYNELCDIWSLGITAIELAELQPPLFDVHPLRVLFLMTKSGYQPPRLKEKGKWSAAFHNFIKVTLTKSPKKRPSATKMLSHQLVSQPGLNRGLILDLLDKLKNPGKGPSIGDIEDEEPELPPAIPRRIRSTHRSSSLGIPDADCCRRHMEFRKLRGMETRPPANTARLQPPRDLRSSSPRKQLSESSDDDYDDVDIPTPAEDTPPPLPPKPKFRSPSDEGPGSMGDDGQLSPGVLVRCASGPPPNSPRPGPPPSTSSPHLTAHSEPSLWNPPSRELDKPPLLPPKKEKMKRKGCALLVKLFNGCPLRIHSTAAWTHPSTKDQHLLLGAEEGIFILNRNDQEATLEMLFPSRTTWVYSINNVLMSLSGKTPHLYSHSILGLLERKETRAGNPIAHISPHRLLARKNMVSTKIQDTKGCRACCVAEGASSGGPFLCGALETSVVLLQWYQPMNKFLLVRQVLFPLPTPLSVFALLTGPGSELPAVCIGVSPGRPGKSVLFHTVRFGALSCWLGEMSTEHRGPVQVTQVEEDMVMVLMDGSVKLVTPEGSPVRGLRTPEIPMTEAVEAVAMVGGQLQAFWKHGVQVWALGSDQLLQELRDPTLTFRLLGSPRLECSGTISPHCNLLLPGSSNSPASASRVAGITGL
row,Compound,IC50 [µM]
1,"COc1cccc(F)c1-c1nccc(Nc2cc(N3CCC4(CCNCC4)C3)c(-c3cnn(C4CCOCC4)c3)cn2)n1 [Example 93, N-(4-(2,8-diazaspiro[4.5]decan-2-yl)-5-(1-(tetrahydro-2H-pyran-4-yl)-1H-pyrazol-4-yl)pyridin-2-yl)-2-(2-fluoro-6-methoxyphenyl)pyrimidin-4-amine hydrochloride]",0.01 to 0.05
2,"COc1cc(F)cc(F)c1-c1nccc(Nc2cc(N3CCC[C@H](O)C3)c(-c3cnn(C(F)(F)F)c3)cn2)n1 [Example 171, (S)-1-(2-((2-(2,4-difluoro-6-methoxyphenyl)pyrimidin-4-yl)amino)-5-(1-(trifluoromethyl)-1H-pyrazol-4-yl)pyridin-4-yl)piperidin-3-ol]",≤ 0.01
3,"COc1cc(CN(C)C)cc(F)c1-c1nccc(Nc2cc(N3CCC[C@H](N)C3)c(-c3cnn(CC(F)(F)F)c3)cn2)n1 [Example 105, (S)-N-(4-(3-aminopiperidin-1-yl)-5-(1-(2,2,2-trifluoroethyl)-1H-pyrazol-4-yl)pyridin-2-yl)-2-(4-((dimethylamino)methyl)-2-fluoro-6-methoxyphenyl)pyrimidin-4-amine hydrochloride]",≤ 0.01
4,"COc1cccc(F)c1-c1nc(Nc2cc(N3CCC[C@H](O)C3)c(C(=O)N[C@@H]3CC[C@H](N)C3)cn2)ccc1[N+](=O)[O-] [Example 200, N-((1R,3S)-3-aminocyclopentyl)-6-((6-(2-fluoro-6-methoxyphenyl)-5-nitropyridin-2-yl)amino)-4-((S)-3-hydroxypiperidin-1-yl)nicotinamide]",≤ 0.01
5,"COc1cccc(F)c1-c1nccc(Nc2cc(N3CCC[C@@H](C(N)=O)C3)c(-c3cnn(C4CCOCC4)c3)cn2)n1 [Example 51, (R)-1-(2-((2-(2-fluoro-6-methoxyphenyl)pyrimidin-4-yl)amino)-5-(1-(tetrahydro-2H-pyran-4-yl)-1H-pyrazol-4-yl)pyridin-4-yl)piperidin-3-carboxamide]",0.05 to 0.1
6,"COc1cccc(F)c1-c1nccc(Nc2cc(N3CCC[C@H](N)C3)c(-c3cnn(C(F)F)c3)cn2)n1 [Example 73, (S)-N-(4-(3-aminopiperidin-1-yl)-5-(1-(difluoromethyl)-1H-pyrazol-4-yl)pyridin-2-yl)-2-(2-fluoro-6-methoxyphenyl)pyrimidin-4-amine hydrochloride]",≤ 0.01
7,"COc1cccc(F)c1-c1nc(Nc2cc(N3CCC[C@H](N)C3)c(C#Cc3cnn(C(F)(F)F)c3)cn2)ccc1[N+](=O)[O-] [Example 156, 4-((S)-3-aminopiperidin-1-yl)-N-(6-(2-fluoro-6-methoxyphenyl)-5-nitropyridin-2-yl)-5-((1-(trifluoromethyl)-1H-pyrazol-4-yl)ethynyl)pyridin-2-amine hydrochloride]",≤ 0.01
8,"COc1cccc(F)c1-c1nc(Nc2cc(N3CC[C@@H](F)[C@H](N)C3)c(-c3cnn(C(F)F)c3)cn2)ccc1[N+](=O)[O-] [Example 334, 4-((3R,4R)-3-amino-4-fluoropiperidin-1-yl)-5-(1-(difluoromethyl)-1H-pyrazol-4-yl)-N-(6-(2-fluoro-6-methoxyphenyl)-5-nitropyridin-2-yl)pyridin-2-amine hydrochloride]",≤ 0.01
9,"COc1cccc(F)c1-c1nc(Nc2cc(N3CCC[C@H](O)C3)c(-c3cnn(C4CCOCC4)c3)cn2)ccc1C [Example 58, (3S)-1-(2-((6-(2-fluoro-6-methoxyphenyl)-5-methylpyridin-2-yl)amino)-5-(1-(tetrahydro-2H-pyran-4-yl)-1H-pyrazol-4-yl)pyridin-4-yl)piperidin-3-ol]",> 0.1
10,"COc1cccc(F)c1-c1nccc(Nc2cc(N3C[C@@H](N)C[C@H](O)C3)c(-c3cnn(C(F)F)c3)cn2)n1 [Example 306, (3S,5S)-5-amino-1-(5-(1-(difluoromethyl)-1H-pyrazol-4-yl)-2-((2-(2-fluoro-6-methoxyphenyl)pyrimidin-4-yl)amino)pyridin-4-yl)piperidin-3-ol hydrochloride]",≤ 0.01
11,"COc1cc(F)cc(F)c1-c1nccc(Nc2cc(N3C[C@@H](N)C[C@@H](F)C3)c(-c3cnn(CC(F)(F)F)c3)cn2)n1 [Example 324, N-(4-((3S,5R)-3-amino-5-fluoropiperidin-1-yl)-5-(2-(2,2,2-trifluoroethyl)-1H-pyrazol-4-yl)pyridin-2-yl)-2-(2,4-difluoro-6-methoxyphenyl)pyrimidin-4-amine]",≤ 0.01
12,"COc1cccc(F)c1-c1nccc(Nc2cc(N3CCC[C@H](N)C3)c(-c3cc(C)c(OC(C)C)c(C)c3)cn2)n1 [Example 284, (S)-N-(4-(3-aminopiperidin-1-yl)-5-(4-isopropoxy-3,5-dimethylphenyl)pyridin-2-yl)-2-(2-fluoro-6-methoxyphenyl)pyrimidin-4-amine hydrochloride]",≤ 0.01
13,"COc1cccc(F)c1-c1nc(Nc2cc(N3CCC[C@H](N)C3)c(-c3cnn(C(F)F)c3)cn2)ccc1F [Example 76, 4-((S)-3-aminopiperidin-1-yl)-5-(1-(difluoromethyl)-1H-pyrazol-4-yl)-N-(5-fluoro-6-(2-fluoro-6-methoxyphenyl)pyridin-2-yl)pyridin-2-amine hydrochloride]",≤ 0.01
14,"COc1cccc(F)c1-c1nccc(Nc2cc(N3CCCC(CC(F)(F)F)C3)c(-c3cnn(C4CCOCC4)c3)cn2)n1 (centres unmarked) [Example 84, 2-(2-fluoro-6-methoxyphenyl)-N-(5-(1-(tetrahydro-2H-pyran-4-yl)-1H-pyrazol-4-yl)-4-(3-(2,2,2-trifluoroethyl)piperidin-1-yl)pyridin-2-yl)pyrimidin-4-amine]",0.01 to 0.05
15,"COc1cccc(F)c1-c1nccc(Nc2cc(N3CCC[C@H](O)C3)c(-c3ccc(C(=O)N4CCN(C)CC4)nc3)cn2)n1 [Example 36, (S)-(6′-((2-(2-fluoro-6-methoxyphenyl)pyrimidin-4-yl)amino)-4′-(3-hydroxypiperidin-1-yl)-[3,3′-bipyridin]-6-yl)(4-methylpiperazin-1-yl)methanone]",≤ 0.01
16,"COc1cccc(F)c1-c1nccc(Nc2cc(N3CCC[C@H](N)C3)c(-c3ccc(N(C)C)nc3)cn2)n1 [Example 118, (S)-4-(3-aminopiperidin-1-yl)-N^6-(2-(2-fluoro-6-methoxyphenyl)pyrimidin-4-yl)-N^6′,N^6′-dimethyl-[3,3′-bipyridin]-6,6′-diamine hydrochloride]",≤ 0.01
17,"COc1cc(F)cc(F)c1-c1nccc(Nc2cc(N3CCC[C@H](N)C3)c(C#CCCO)cn2)n1 [Example 314, (S)-4-(4-(3-aminopiperidin-1-yl)-6-((2-(2,4-difluoro-6-methoxyphenyl)pyrimidin-4-yl)amino)pyridin-3-yl)but-3-yn-1-ol]",≤ 0.01
18,"COc1cccc(F)c1-c1nccc(Nc2cc(N3CC[C@@H](N)[C@H](O)C3)c(-c3cnn(C(F)F)c3)cn2)n1 [Example 295, (3R,4R)-4-amino-1-(5-(1-(difluoromethyl)-1H-pyrazol-4-yl)-2-((2-(2-fluoro-6-methoxyphenyl)pyrimidin-4-yl)amino)pyridin-4-yl)piperidin-3-ol]",≤ 0.01
19,"COc1cccc(F)c1-c1nc(Nc2cc(N3CCC[C@H](O)C3)c(-c3cnn(C4CCOCC4)c3)cn2)ccc1C(N)=O [Example 112, 2-(2-fluoro-6-methoxyphenyl)-6-((4-((S)-3-hydroxypiperidin-1-yl)-5-(1-(tetrahydro-2H-pyran-4-yl)-1H-pyrazol-4-yl)pyridin-2-yl)amino)nicotinamide]",≤ 0.01
20,"COc1cccc(F)c1-c1nccc(Nc2cc(N3CCC[C@H](O)C3)c(-c3cnn(CC4CC4)c3)cn2)n1 [Example 17, (S)-1-(5-(1-(cyclopropylmethyl)-1H-pyrazol-4-yl)-2-((2-(2-fluoro-6-methoxyphenyl)pyrimidin-4-yl)amino)pyridin-4-yl)piperidin-3-ol]",≤ 0.01
21,"COc1cccc(F)c1-c1nccc(Nc2cc(N3CCC[C@H](N)C3)c(C#CC3CCOCC3)cn2)n1 [Example 79, (S)-N-(4-(3-aminopiperidin-1-yl)-5-((tetrahydro-2H-pyran-4-yl)ethynyl)pyridin-2-yl)-2-(2-fluoro-6-methoxyphenyl)pyrimidin-4-amine hydrochloride]",≤ 0.01
22,"COc1cccc(F)c1-c1nccc(Nc2cc(N3CCC[C@H](N)C3)c(-c3cnn(CF)c3)cn2)n1 [Example 247, (S)-N-(4-(3-aminopiperidin-1-yl)-5-(1-(fluoromethyl)-1H-pyrazol-4-yl)pyridin-2-yl)-2-(2-fluoro-6-methoxyphenyl)pyrimidin-4-amine hydrochloride]",≤ 0.01
23,"COc1cccc(F)c1-c1nc(Nc2cc(N3CCC[C@H](O)C3)c(-c3cnn(CC(F)(F)F)c3)cn2)ccc1C(N)=O [Example 143, 2-(2-fluoro-6-methoxyphenyl)-6-((4-((S)-3-hydroxypiperidin-1-yl)-5-(1-(2,2,2-trifluoroethyl)-1H-pyrazol-4-yl)pyridin-2-yl)amino)nicotinamide]",≤ 0.01
